Test results as given in US20230066946A1, “1,5-DIPHENYLPYRAZOLYL-3-OXYALKYL ACIDS AND 1-PHENYL-5-THIENYLPYRAZOLYL-3-OXYALKYL ACIDS AND THE USE THEREOF FOR CONTROL OF UNWANTED PLANT GROWTH” (Bayer Aktiengesellschaft, priority 2019, published 2023).

Assays:
[1] = system: SETVI; assay: Pre-emergence herbicidal action against SETVI; type: in vivo, Setaria viridis; settings: 1280 g/ha, scored visually after about 3 weeks vs untreated controls
How it was run: (§1)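 Pre-emergence, sandy loam, pots doubly sown. WP/EC formulations + 0.5% additive, 600 L/ha water, sprayed on soil surface; 1280 or 320 g/ha. Greenhouse ~3 wk; visual % effect vs untreated.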

[2] = system: ECHCG; assay: Pre-emergence herbicidal action against ECHCG; type: in vivo, Echinochloa crus-galli; settings: scored visually after about 3 weeks vs untreated controls, 100% = plants have died, 0% = like control plants
How it was run: as §1

[3] = system: MATIN; assay: Post-emergence herbicidal action against MATIN; type: in vivo, Matricaria inodora; settings: 1280 g/ha, visual rating about 3 weeks after treatment
How it was run: (§2)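 Visual scoring, where 100% = dead and 0% = like untreated plants, was done about 3 weeks after treatment. Dose was 1280 or 320 g/ha, delivered as aqueous WP/EC suspension or emulsion with 0.5% additive at 600 L/ha. Pot-grown weeds in sandy loam were treated post-emergence at one leaf, 2-3 weeks post-sowing.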

[4] = system: STEME; assay: Post-emergence herbicidal action against STEME; type: in vivo, Stellaria media; settings: 1280 g/ha, visual rating about 3 weeks after treatment
How it was run: as §2

[5] = system: AMARE; assay: Pre-emergence herbicidal action against AMARE; type: in vivo, Amaranthus retroflexus; settings: 1280 g/ha, scored visually after about 3 weeks vs untreated controls
How it was run: as §1

[6] = system: STEME; assay: Pre-emergence herbicidal action against STEME; type: in vivo, Stellaria media; settings: 1280 g/ha, scored visually after about 3 weeks vs untreated controls
How it was run: as §1

[7] = system: harmful plants; assay: Pre-emergence herbicidal action, summary of Tables 4.1-4.15; type: in vivo; settings: result in words
Excerpt: Seeds of mono- and dicotyledonous weed plants are placed in plastic pots in sandy loam soil (doubly sown with one species each of mono- or dicotyledonous weed plants per pot) and covered with soil. The compounds of the invention, formulated in the form of wettable powders (WP) or as emulsion concentrates (EC), are then applied onto the surface of the covering soil as aqueous suspension or emulsion with addition of 0.5% additive at a water application rate equivalent to 600 litres per hectare. After the treatment, the pots are placed in a greenhouse and kept under good growth conditions for the trial plants. After about 3 weeks, the effect of the preparations is scored visually in comparison with untreated controls as percentages. For example, 100% activity=the plants have died, 0% activity=like control plants.
Tables 4.1-4.15 below show the effects of selected compounds of the general formula (I) according to Tables 1 to 3 on various harmful plants at an application rate corresponding to 1280 or 320 g/ha, which have been obtained by the aforementioned experimental method.
For example, compounds no. I-008, I-056, I-057, I-061, I-067, I-070 and I-072 applied by the pre-emergence method have very good action (80% to 100% herbicidal action) against harmful plants such as Alopecurus myosuroides, Amaranthus retroflexus, Matricaria inodora, Polygonum convolvulus, Setaria viridis and Stellaria media at an application rate of 1.28 kg of active substance or less per hectare.

[8] = system: ECHCG; assay: Post-emergence herbicidal action against ECHCG; type: in vivo, Echinochloa crus-galli; settings: 1280 g/ha, post-emergence at one-leaf stage, rated visually after about 3 weeks vs untreated controls
Method: [table] Seeds of mono- and dicotyledonous weed plants are placed in plastic pots in sandy loam soil (twin sowing with one species each of mono- or dicotyledonous weed plants per pot), covered with soil and cultivated in a greenhouse under controlled growth conditions. 2 to 3 weeks after sowing, the test plants are treated at the one-leaf stage. The compounds of the invention, formulated in the form of wettable powders (WP) or as emulsion concentrates (EC), are applied to the green parts of the plants as aqueous suspension or emulsion with addition of 0.5% additive at a water application rate equivalent to 600 litres per hectare. After the test plants have been kept in the greenhouse under optimum growth conditions for about 3 weeks, the activity of the preparations is rated visually in comparison to untreated controls. For example, 100% activity=the plants have died, 0% activity=like control plants. Tables 5.1-5.16 below show the effects of selected compounds of the general formula (I) according to Tables 1 to 3 on various harmful plants at an application rate corresponding to 1280 or 320 g/ha, which have been obtained by the aforementioned experimental method.

[9] = system: SETVI; assay: Post-emergence herbicidal action against SETVI; type: in vivo, Setaria viridis; settings: 1280 g/ha, post-emergence at one-leaf stage, rated visually after about 3 weeks vs untreated controls
How it was run: as §2

[10] = system: AMARE; assay: Post-emergence herbicidal action against AMARE; type: in vivo, Amaranthus retroflexus; settings: 1280 g/ha, visual rating about 3 weeks after treatment
How it was run: as §2

Row | Structure (SMILES) | Pre-emergence action against SETVI in % [1] [%] | Pre-emergence action at 1280 g/ha against ECHCG in % [2] [%] | Post-emergence action against MATIN in % [3] [%] | Post-emergence action against STEME in % [4] [%] | Pre-emergence action against AMARE in % [5] [%] | Pre-emergence action against STEME in % [6] [%] | herbicidal efficacy against harmful plants in the case of pre-emergence treatment [7] | Post-emergence action against ECHCG in % [8] [%] | Post-emergence action against SETVI in % [9] [%] | Post-emergence action against AMARE in % [10] [%]
1 | O=C(O)COc1nn(-c2ccc(F)cc2)c(-c2cccc(F)c2)c1[N+](=O)[O-] [I-121] | 100 | 100 | 90 | 100 | 90 | 100 | good herbicidal efficacy | – | – | –
2 | CC(Oc1nn(-c2ccccc2)c(-c2ccc(F)cc2)c1Br)C(=O)O (stereo not drawn) [I-138, 2-{[4-Bromo-5-(4-fluorophenyl)-1-phenyl-1H-pyrazol-3-yl]oxy}propanoic acid] | 100 | 100 | – | 100 | 100 | 100 | good herbicidal efficacy | – | – | –
3 | NCc1ccccc1.O=C(O)COc1nn(-c2cccc(F)c2)c(-c2ccccc2)c1I [II-13] | – | – | 100 | – | 100 | 90 | good herbicidal efficacy | – | – | –
4 | C=CCNC(=O)COc1nn(-c2ccc(F)cc2)c(-c2cccc(F)c2)c1Cl [III-022] | 100 | 100 | – | 100 | 90 | 100 | good herbicidal efficacy | 90 | 100 | 90
5 | COC(=O)CNC(=O)COc1nn(-c2ccc(F)cc2)c(-c2cccc(F)c2)c1Cl [III-027] | 90 | 100 | 100 | 90 | 100 | 100 | good herbicidal efficacy | 90 | 100 | 90
6 | C=CCNC(=O)COc1nn(-c2ccccc2F)c(-c2ccc(F)c(F)c2)c1Br [III-053] | 100 | 100 | 90 | 100 | 90 | 100 | good herbicidal efficacy | 100 | 100 | –
